Test results published in patent publication US12534456B2, “Heterocyclyl pyridines as novel fungicides” (Bayer Aktiengesellschaft, priority 2020, dated 2026).

Experiment: physchem
Type: physicochemical
Description: Measurement of Log P values as provided herein was performed according to EEC directive 79/831 Annex V.A8 by HPLC (High Performance Liquid Chromatography) on reversed phase columns with the following methods: • ^[a]
If more than one Log P value is available within the same method, all the values are given and separated by “+”.
Lambda-max-values were determined using UV-spectra from 200 nm to 400 nm and the peak values of the chromatographic signals

Row | Compound | LogP
1 | Cc1ccc(CC2CON=C(c3cc(C#N)ncc3Oc3cccc(C(F)(F)F)c3)N2)cc1 (racemic) [Compound I-057] | 4.12^[a]
2 | C=Cc1cc(C2=NOCC(Cc3ccc(C)cc3)N2)c(Oc2cccc(C(F)(F)F)c2)cn1 (racemic) [Compound I-059] | 4.19^[a]
3 | Cc1ccc(CC2CON=C(c3cc(C#C[Si](C)(C)C)ncc3Oc3cccc(C(F)(F)F)c3)N2)cc1 (racemic) [Compound I-060] | 5.53^[a]
4 | CC(=O)c1cc(C2=NOCC(Cc3ccc(C)cc3)N2)c(Oc2cccc(C(F)(F)F)c2)cn1 (racemic) [Compound I-061] | 4.07^[a]
5 | Cc1ccc(CC2CON=C(c3c(Oc4cccc(C(F)(F)F)c4)cnc(Cl)c3F)N2)c(C)c1 (racemic) [Compound I-062] | 4.66^[a]
6 | Cc1ccc(CC2CON=C(c3cc(Cl)ncc3Oc3ccccc3)N2)c(C)c1 (racemic) [Compound I-063] | 4.17^[a]
7 | CSc1cccc(Oc2cnc(Cl)cc2C2=NOCC(Cc3ccc(C)cc3C)N2)c1 (racemic) [Compound I-064] | 4.66^[a]
8 | Cc1ccc(CC2CON=C(c3cc(Cl)ncc3Oc3cccc(OC(F)F)c3)N2)c(C)c1 (racemic) [Compound I-065] | 4.38^[a]
9 | Cc1ccc(CC2CON=C(c3cc(Cl)ncc3Oc3cccc(C4CC4)c3F)N2)c(Cl)c1 (racemic) [Compound I-066] | 5.04^[a]
10 | COc1cc(C2=NOCC(Cc3ccc(C)cc3Cl)N2)c(Oc2cccc(Cl)c2F)cn1 (racemic) [Compound I-067] | 4.51^[a]
11 | FC(F)(F)c1cccc(Oc2cnc(Cl)cc2C2=NOCC(Cc3csc(C(F)(F)F)c3)N2)c1 (racemic) [Compound I-068] | 4.40^[a]
12 | Cc1ccc(CC2CON=C(c3cc(C)ncc3Oc3cccc(Cl)c3F)N2)c(Cl)c1 (racemic) [Compound I-069] | 4.07^[a]
13 | FC(F)(F)c1cccc(Oc2cnc(Cl)cc2C2=NOCC(c3ccccc3)N2)c1 (racemic) [Compound I-070] | 3.64^[a]
14 | Fc1cccc(Oc2cnc(Cl)cc2C2=NOCC(Cc3ccc(Cl)cc3Cl)N2)c1F (racemic) [Compound I-071] | 4.40^[a]
15 | FC(F)(F)c1cc(Oc2cnc(Cl)cc2C2=NOCC(Cc3ccc(Cl)cc3Cl)N2)cs1 (racemic) [Compound I-072] | 4.75^[a]
16 | C#Cc1ccc(CC2CON=C(c3cc(C#C)ncc3Oc3cccc(C(F)(F)F)c3)N2)c(C)c1 (racemic) [Compound I-074] | 3.75^[a]
17 | C#Cc1cccc(Oc2cnc(Cl)cc2C2=NOCC(Cc3ccc(C)cc3C)N2)c1 (racemic) [Compound I-075] | 4.33^[a]
18 | Cc1ccc(CC2CON=C(c3cc(Cl)ncc3Oc3ccc(C)c(Cl)c3)N2)c(C)c1 (racemic) [Compound I-076] | 4.97^[a]
19 | COC(=O)Cc1cccc(Oc2cnc(Cl)cc2C2=NOCC(Cc3ccc(C)cc3C)N2)c1 (racemic) [Compound I-078] | 4.08^[a]
20 | Cc1ccc(CC2CON=C(c3cc(Cl)ncc3Oc3cccc(Br)c3F)N2)c(Cl)c1 (racemic) [Compound I-079] | 4.70^[a]
21 | N#Cc1ccc(C2CON=C(c3cc(Cl)ncc3Oc3cccc(C(F)(F)F)c3)N2)cc1 (racemic) [Compound I-080] | 3.30^[a]
22 | Cc1ccc(CC2CN=C(c3cc(Cl)ncc3Oc3cccc(C(F)(F)F)c3)N2)c(C)c1 (racemic) [Compound I-081] | 2.64^[a]

Row | Compound | LogP
23 | Cc1ccc(CC2CON=C(c3cc(Cl)nc(F)c3Oc3cccc(C(F)(F)F)c3)N2)c(C)c1 (racemic) [Compound I-082] | 4.97^[a]
24 | Cc1cc(Cl)ccc1CC1CON=C(c2cc(Cl)ncc2Oc2cccc(Cl)c2F)N1 (racemic) [Compound I-083] | 4.59^[a]
25 | Cc1ccc(CC2CNN=C(c3cc(Cl)ncc3Oc3cccc(C(F)(F)F)c3)N2)c(C)c1 (racemic) [Compound I-084] | 2.86^[a]
26 | Cc1ccc(CC2CON=C(c3cc(Cl)ncc3Oc3cccc(C=O)c3)N2)c(C)c1 (racemic) [Compound I-085] | 3.64^[a]
27 | Cc1ccc(CC2CON=C(c3cc(Cl)ncc3Oc3ccc4ccccc4c3)N2)c(C)c1 (racemic) [Compound I-086] | 4.77^[a]
28 | Cc1ccc(CC2CON=C(c3cc(Cl)ncc3Oc3cccc(Cl)c3F)N2)c(Cl)c1 (racemic) [Compound I-087] | 4.66^[a]
29 | Cc1ccc(CC2CON=C(c3cc(Cl)ncc3Oc3cccc(-c4ccccn4)c3)N2)c(C)c1 (racemic) [Compound I-089] | 3.87^[a]
30 | FC(F)(F)Sc1cccc(Oc2cnc(Cl)cc2C2=NOCC(Cc3ccc(Cl)cc3Cl)N2)c1 (racemic) [Compound I-090] | 5.16^[a]
31 | C#Cc1cc(C2=NOCC(Cc3ccc(Br)cc3C)N2)c(Oc2cccc(C(F)(F)F)c2)cn1 (racemic) [Compound I-091] | 4.19^[a]
32 | CCc1cccc(Oc2cnc(Cl)cc2C2=NOCC(Cc3ccc(C)cc3C)N2)c1 (racemic) [Compound I-092] | 5.04^[a]
33 | Cc1ccc(CC2CON=C(c3cc(Cl)ncc3Oc3cnc4ccccc4c3)N2)c(C)c1 (racemic) [Compound I-093] | 3.65^[a]
34 | Cc1ccc(CC2CN(C=O)N=C(c3cc(Cl)ncc3Oc3cccc(C(F)(F)F)c3)N2)c(C)c1 (racemic) [Compound I-094] | 4.49^[a]
35 | Cc1ccc(CC2CON=C(c3cc(Cl)ncc3Oc3cccc(S(C)(=O)=O)c3)N2)c(C)c1 (racemic) [Compound I-095] | 3.25^[a]
36 | Cn1cc(C2CON=C(c3cc(Cl)ncc3Oc3cccc(C(F)(F)F)c3)N2)c2ccccc21 (racemic) [Compound I-096] | 4.01^[a]
37 | C=Cc1cccc(Oc2cnc(Cl)cc2C2=NOCC(Cc3ccc(Cl)cc3Cl)N2)c1 (racemic) [Compound I-099] | 4.85^[a]
38 | Cc1ccc(CC2CON=C(c3cc(Cl)ncc3Oc3ccc4c(c3)CCC4)N2)c(C)c1 (racemic) [Compound I-100] | 5.16^[a]
39 | Cc1ccc(CC2CON=C(c3cc(Cl)ncc3Oc3cccc(C4CCC4)c3)N2)c(C)c1 (racemic) [Compound I-101] | 5.50^[a]
40 | Fc1c(Cl)cccc1Oc1cnc(Cl)cc1C1=NOCC(Cc2ccc(Cl)cc2Cl)N1 (racemic) [Compound I-102] | 4.71^[a]
41 | Cc1ccc(CC2CON=C(c3cc(Cl)ncc3Oc3cccc(Cl)c3)N2)c(Cl)c1 (racemic) [Compound I-103] | 4.66^[a]
42 | Cc1ccc(CC2CON=C(c3cc(Cl)ncc3Oc3cccc(Br)c3)N2)c(C)c1 (racemic) [Compound I-104] | 4.74^[a]
43 | FC(F)(F)c1cccc(Oc2cnc(Cl)cc2C2=NOCC(Cc3ccc(C(F)(F)F)cc3Cl)N2)c1 (racemic) [Compound I-105] | 4.84^[a]
44 | FC(F)(F)c1cccc(Oc2cnc(Cl)cc2C2=NCC(Cc3ccc(Cl)cc3)N2)c1 (racemic) [Compound I-106] | 2.45^[a]

Row | Compound | LogP
45 | FC(F)(F)c1cccc(Oc2cnc(Cl)cc2C2=NOCCC(c3ccc(Cl)cc3)N2)c1 (racemic) [Compound I-108] | 2.12^[a]
46 | Cc1ccc(C2(C)NC(c3cc(Cl)ncc3Oc3cccc(C(F)(F)F)c3)=NO2)cc1 (racemic) [Compound I-109] | 4.59^[a]
47 | Cc1ccc(CC2CON=C(c3cc(Cl)ncc3Oc3cccc(C(F)(F)F)c3)N2)cc1 (racemic) [Compound I-110] | 4.31^[a]
48 | Cc1ccc(CC2CON=C(c3cc(Cl)ncc3Oc3ccc4c(c3)CCO4)N2)c(C)c1 (racemic) [Compound I-111] | 4.23^[a]
49 | CCN(C)c1cc(C2=NOCC(Cc3ccc(C)cc3Cl)N2)c(Oc2cccc(Cl)c2F)cn1 (racemic) [Compound I-112] | 4.59^[a]
50 | Cc1ccc(CC2CON=C(c3cc(Cl)ncc3Oc3cccc(C4COC4)c3)N2)c(C)c1 (racemic) [Compound I-113] | 3.68^[a]
51 | Cc1ccc(CC2CON=C(c3cc(Cl)ncc3Oc3ccc4c(c3)OC(F)(F)O4)N2)c(C)c1 (racemic) [Compound I-114] | 4.65^[a]
52 | Fc1c(Br)cccc1Oc1cnc(Cl)cc1C1=NOCC(Cc2ccc(Cl)cc2Cl)N1 (racemic) [Compound I-115] | 4.69^[a]
53 | Cc1ccc(CC2CON=C(c3cc(Cl)ncc3Oc3cccc4c3CCC4)N2)c(C)c1 (racemic) [Compound I-116] | 5.14^[a]
54 | CC(=O)c1cccc(Oc2cnc(Cl)cc2C2=NOCC(Cc3ccc(C)cc3C)N2)c1 (racemic) [Compound I-117] | 3.70^[a]
55 | Cc1ccc(Cl)c(CC2CON=C(c3cc(Cl)ncc3Oc3cccc(Cl)c3F)N2)c1 (racemic) [Compound I-118] | 4.52^[a]
56 | Cc1ccc(CC2CON=C(c3cc(Cl)ncc3Oc3ccc4ccsc4c3)N2)c(C)c1 (racemic) [Compound I-119] | 4.59^[a]
57 | Cc1ccc(CC2CON=C(c3cc(Cl)ncc3Oc3ccc(OC(F)(F)F)cc3)N2)c(C)c1 (racemic) [Compound I-120] | 4.76^[a]
58 | CSc1c(Cl)ncc(Oc2cccc(C(F)(F)F)c2)c1C1=NOCC(Cc2ccc(C)cc2C)N1 (racemic) [Compound I-121] | 4.67^[a]
59 | Cc1ccc(CC2CON=C(c3c(Oc4cccc(C(F)(F)F)c4)cnc(Cl)c3C)N2)c(C)c1 (racemic) [Compound I-124] | 4.55^[a]
60 | FC(F)(F)c1cncc(Oc2cnc(Cl)cc2C2=NOCC(Cc3ccc(Cl)cc3Cl)N2)c1 (racemic) [Compound I-125] | 3.71^[a]
61 | COCCOc1cccc(Oc2cnc(Cl)cc2C2=NOCC(Cc3ccc(C)cc3C)N2)c1 (racemic) [Compound I-126] | 4.15^[a]
62 | Cc1ccc(CC2CON=C(c3cc(Cl)nc(Cl)c3Oc3cccc(C(F)(F)F)c3)N2)c(C)c1 (racemic) [Compound I-127] | 5.08^[a]
63 | FC(F)(F)c1cccc(Oc2cnc(Cl)cc2C2=NOCC(Cc3ccc(Cl)cc3Cl)N2)n1 (racemic) [Compound I-128] | 4.44^[a]
64 | COCCOc1c(Cl)ncc(Oc2cccc(C(F)(F)F)c2)c1C1=NOCC(Cc2ccc(C)cc2C)N1 (racemic) [Compound I-129] | 4.51^[a]
